Assay results taken from patent US7977069B2, “DNA encoding a CCK-8S G-protein coupled receptor, and vectors, transformants, cell kits, and methods employing such DNA” (Daiichi Sankyo Company, Limited, priority 2003, dated 2011).

Legend:
variant 3 gene product = test: Change in intracellular Ca2+ concentration in variant 3 stably expressing cell line; format: cell-based, human; settings: A23187 20 μM
Method: The function of variant 3 gene was analyzed using stably expressing cell line of variant 3 gene by investigating a change in intracellular calcium concentration (Ca^2+) caused by CCK-8S. The change in intracellular calcium concentration (Ca^2+) was measured using the same method described in Example 5. The stably expressing cell line of variant 3 gene was prepared using the variant 3 gene expression vector constructed in Example 7 by the method similar to the method described in Example 7.
(§1) The cell line was seeded in 96-well plates (plates with a black wall surface and transparent bottom) at 3×10^4 cells/100 μL medium/well and cultured overnight at 37° C. in the presence of 5% CO2. The next day, 50 μL of the medium was exited from each well, and 50 μL of loading buffer was added to each well to allow for a reaction at room temperature for 1 h so as to incorporate fluorescent dye contained in the loading buffer into cells. The loading buffer was prepared by the same method as described in Example 5. After the reaction, a change in the fluorescence intensity upon addition of CCK-8S was measured along with time for each well for 40 sec using FLEXstation (Molecular Devices Corp.). CCK-8S was used at a final concentration of 10 pM-1 μM. Further, A23187 was used at a final concentration of 20 μM as a positive control of the assay.

7tmHR gene product = target: T1, 7tmHR gene product (Homo sapiens, UniProt O60241); test: Change in intracellular Ca2+ concentration in 7tmHR stably expressing cell line; format: cell-based; settings: A23187 20 μM
T1 construct: three kinds of full length cDNA clones were obtained; expressed in transfected cells; host or cells: CHO-K1 (7tmHR/pcDNA3.1)
Method: (§2) Using stably expressing cell line of a splicing variant of ph01207 gene, a change in intracellular calcium concentration (Ca^2+) caused by CCK-8S was measured using the same method described in Example 5. As the stably expressing cell line of the splicing variant of ph01207 gene, the stably expressing cell line constructed in Example 7 was used. Further, using stable expressing cell line of hk01941 gene, the same investigation was conducted. As the stably expressing cell line of hk01941 gene, the stably expressing cell line constructed in Example 7 was used. As a control, a host cell which was not transfected with 7tmHR expression vector or hk01941 expression vector was used.
as §1, with “extracted” for “exited”, “well” for “well for 40 sec”, “CCK-8S was used at a final concentration of 10 pM-1 μM. Further, A23187 was used at a final concentration of 20 μM as a positive control of the assay.” left out

CHO-K1 cell line = test: Change in intracellular Ca2+ concentration in non-transfected CHO-K1 host cell line (negative control cells); format: cell-based, Chinese hamster; settings: for increase in intracellular Ca2+ concentration: CHO-K1 cell line not transfected, peptide final concentration 1 nM (Example 5)
Method: (§3) A specific method for measuring a change in intracellular Ca^2+ concentration in the HA-ph01207#10-6 cell line produced by CCK-8S (SEQ ID NO: 14) and the results thereof are described below. HA-ph01207#10-6 cell line was seeded in 96-well plates (plates with a black wall surface and transparent bottom) at a cell count of 2×10^4/100 μL medium/well and cultured at 37° C. in the presence of 5% CO2. DMEM/F12 (Gibco) containing 10% fetal calf serum (Moregate BioTech) was used as medium. The next day, 50 μL of medium was extracted from each well, and 50 μL of loading buffer was added each well and allowed to react at room temperature for 1.5 h so as to incorporate fluorescent dye contained in the loading buffer into cells. The loading buffer was prepared by dissolving component A of the FLIPR Calcium 3 Assay Kit (Molecular Devices Corp.) with a solution in which 0.1 mL of 500 mM probenecid (Sigma) was added to 9.9 mL of component B. After the reaction, a change in the fluorescence intensity upon addition of CCK-BS (Peptide Institute, Osaka, Japan) was measured along with time for each well using FLEXstation (Molecular Devices Corp.). Measurement was also performed in a similar manner for CCK-8NS (Peptide Institute, Osaka, Japan) and CCK-4 (Peptide Institute). For CCK-8S (SEQ ID NO: 14), 0.52 mg thereof was dissolved with 4.5 mL of 1% NaHCO3 (Wako) to prepare a 0.1 mM concentration solution. For CCK-8NS, after dissolving 0.53 mg thereof with 0.50 mL of dimethylsulfoxide (DMSO, Sigma), 4.50 mL of redistilled water was added thereto to prepare a 0.1 mM concentration solution. For CCK-4, after dissolving 0.54 mg thereof with 0.46 mL of DMSO, 4.09 mL of redistilled water was added thereto to prepare a 0.2 mM concentration solution. CCK-8S (SEQ ID NO: 14), CCK-8NS and CCK-4 were each diluted with phosphate buffered saline (PBS) to make a 5 nM solution, and measurement was performed after adding 25 μL (final concentration 1 nM) of each. As a positive control that induces an increase in intracellular Ca^2+ concentration, A23187 (Calbiochem, Calif.) was used at a final concentration of 10 μM. As a negative control, CHO-K1 cell line that was used as a host in production of the HA-ph01207#10-6 cell line was used. Since the ph01207 expression vector was not transfected into the CHO-K1 cell line, the ph01207 gene product was not expressed therein.
as §2
as §1, with “extracted” for “exited”, “well” for “well for 40 sec”, “[…]” for “pM-1”, “assay. […]” for “assay.”

hk01941 gene product = test: Change in intracellular Ca2+ concentration in hk01941 stably expressing cell line; format: cell-based, human; settings: A23187 20 μM
Method: as §2
as §1, with “extracted” for “exited”, “well” for “well for 40 sec”, “CCK-8S was used at a final concentration of 10 pM-1 μM. Further, A23187 was used at a final concentration of 20 μM as a positive control of the assay.” left out

[1] = target: T2, protein encoded by ph01207 (Homo sapiens, UniProt O60241, DEL308-362); test: Change in intracellular Ca2+ concentration in HA-ph01207#10-6 cell line (FLIPR Calcium 3, FLEXstation); format: cell-based; settings: for rise in the intracellular Ca2+ concentration: peptide final concentration 1 nM
T2 construct: expressed in transfected cells; host or cells: CHO-K1 (HA-ph01207#10-6, FERM BP-10101)
T2 sequence (O60241 with tags, fused parts or gaps DEL308-362): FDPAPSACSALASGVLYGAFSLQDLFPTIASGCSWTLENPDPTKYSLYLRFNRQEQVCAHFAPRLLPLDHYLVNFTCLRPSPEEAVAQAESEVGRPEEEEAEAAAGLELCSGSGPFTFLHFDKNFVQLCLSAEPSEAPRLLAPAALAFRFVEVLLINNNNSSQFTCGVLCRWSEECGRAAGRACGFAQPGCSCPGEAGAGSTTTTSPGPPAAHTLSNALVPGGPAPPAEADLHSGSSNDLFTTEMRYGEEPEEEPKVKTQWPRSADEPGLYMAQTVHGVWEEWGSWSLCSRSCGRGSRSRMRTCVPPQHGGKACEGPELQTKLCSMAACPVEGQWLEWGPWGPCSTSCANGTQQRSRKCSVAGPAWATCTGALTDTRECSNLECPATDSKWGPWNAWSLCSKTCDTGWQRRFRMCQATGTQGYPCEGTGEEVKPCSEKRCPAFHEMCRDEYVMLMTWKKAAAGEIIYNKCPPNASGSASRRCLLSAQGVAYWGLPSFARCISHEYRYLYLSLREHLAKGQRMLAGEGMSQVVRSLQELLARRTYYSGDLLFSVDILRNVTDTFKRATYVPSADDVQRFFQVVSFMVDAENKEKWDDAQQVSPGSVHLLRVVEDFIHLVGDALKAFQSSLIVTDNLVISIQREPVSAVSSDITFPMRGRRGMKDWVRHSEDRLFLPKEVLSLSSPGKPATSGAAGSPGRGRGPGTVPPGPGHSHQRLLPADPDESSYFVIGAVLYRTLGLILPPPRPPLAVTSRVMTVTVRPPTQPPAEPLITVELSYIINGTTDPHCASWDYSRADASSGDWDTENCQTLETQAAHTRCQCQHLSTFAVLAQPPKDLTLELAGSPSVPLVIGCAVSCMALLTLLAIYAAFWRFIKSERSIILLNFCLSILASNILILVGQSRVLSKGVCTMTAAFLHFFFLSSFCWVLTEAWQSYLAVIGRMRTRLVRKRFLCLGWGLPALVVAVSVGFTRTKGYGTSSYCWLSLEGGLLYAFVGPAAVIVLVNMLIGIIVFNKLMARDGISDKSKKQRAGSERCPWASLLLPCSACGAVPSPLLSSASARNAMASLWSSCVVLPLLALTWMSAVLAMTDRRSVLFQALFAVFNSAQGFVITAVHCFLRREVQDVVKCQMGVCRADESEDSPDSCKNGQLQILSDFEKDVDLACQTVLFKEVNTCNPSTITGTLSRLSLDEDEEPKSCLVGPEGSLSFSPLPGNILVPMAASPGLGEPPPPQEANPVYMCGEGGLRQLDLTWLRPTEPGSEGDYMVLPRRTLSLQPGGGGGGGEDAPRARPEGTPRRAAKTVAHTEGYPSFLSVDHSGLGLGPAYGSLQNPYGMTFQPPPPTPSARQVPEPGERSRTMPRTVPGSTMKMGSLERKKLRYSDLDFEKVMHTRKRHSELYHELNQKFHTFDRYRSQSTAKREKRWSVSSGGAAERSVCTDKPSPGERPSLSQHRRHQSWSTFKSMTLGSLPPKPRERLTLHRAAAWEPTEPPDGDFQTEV
Method: Changes in intracellular calcium (Ca^2+) concentrations caused by CCK-8S(SEQ ID NO: 14), CCK-8NS and CCK-4 were determined using the […] expression cell lines prepared in Example 2. The cell lines prepared in Example 2 are eight lines in which the protein encoded by ph01207 expresses as a FLAG-tag fusion protein and four lines in which the protein encoded by ph01207 expresses as a HA-tag fusion protein. Among these, in this example HA-ph01207#10-6 cell line was used as a line obtained by cellular cloning of one cell line that stably expresses the protein encoded by ph01207 as a HA-tag fusion protein. Although CCK-8NS is a CCK octapeptide consisting of the same amino acid sequence as CCK-8S (SEQ ID NO: 14), the seventh tyrosine residue from the C-terminal thereof is not sulfated. CCK-4 is a tetrapeptide consisting of the amino acid residues from the C-terminus to the fourth amino acid residue of CCK-8S (SEQ ID NO: 14).
as §3, with “CCK-8S (SEQ ID NO: 14), CCK-8NS and CCK-4 were each diluted with phosphate buffered saline (PBS) to make a 5 nM solution, and measurement was performed after adding 25 μL (final concentration 1 nM) of each. As a positive control that induces an increase in intracellular Ca^2+ concentration, A23187 (Calbiochem, Calif.) was used at a final concentration of 10 μM. As a negative control, CHO-K1 cell line that was used as a host in production of the HA-ph01207#10-6 cell line was used. Since the ph01207 expression vector was not transfected into the CHO-K1 cell line, the ph01207 gene product was not expressed therein.” left out

[2] = CCK-8S administered to diabetes patients (Bo, A. et al., 2000); cited from earlier work

T1 sequence (O60241 13-1585): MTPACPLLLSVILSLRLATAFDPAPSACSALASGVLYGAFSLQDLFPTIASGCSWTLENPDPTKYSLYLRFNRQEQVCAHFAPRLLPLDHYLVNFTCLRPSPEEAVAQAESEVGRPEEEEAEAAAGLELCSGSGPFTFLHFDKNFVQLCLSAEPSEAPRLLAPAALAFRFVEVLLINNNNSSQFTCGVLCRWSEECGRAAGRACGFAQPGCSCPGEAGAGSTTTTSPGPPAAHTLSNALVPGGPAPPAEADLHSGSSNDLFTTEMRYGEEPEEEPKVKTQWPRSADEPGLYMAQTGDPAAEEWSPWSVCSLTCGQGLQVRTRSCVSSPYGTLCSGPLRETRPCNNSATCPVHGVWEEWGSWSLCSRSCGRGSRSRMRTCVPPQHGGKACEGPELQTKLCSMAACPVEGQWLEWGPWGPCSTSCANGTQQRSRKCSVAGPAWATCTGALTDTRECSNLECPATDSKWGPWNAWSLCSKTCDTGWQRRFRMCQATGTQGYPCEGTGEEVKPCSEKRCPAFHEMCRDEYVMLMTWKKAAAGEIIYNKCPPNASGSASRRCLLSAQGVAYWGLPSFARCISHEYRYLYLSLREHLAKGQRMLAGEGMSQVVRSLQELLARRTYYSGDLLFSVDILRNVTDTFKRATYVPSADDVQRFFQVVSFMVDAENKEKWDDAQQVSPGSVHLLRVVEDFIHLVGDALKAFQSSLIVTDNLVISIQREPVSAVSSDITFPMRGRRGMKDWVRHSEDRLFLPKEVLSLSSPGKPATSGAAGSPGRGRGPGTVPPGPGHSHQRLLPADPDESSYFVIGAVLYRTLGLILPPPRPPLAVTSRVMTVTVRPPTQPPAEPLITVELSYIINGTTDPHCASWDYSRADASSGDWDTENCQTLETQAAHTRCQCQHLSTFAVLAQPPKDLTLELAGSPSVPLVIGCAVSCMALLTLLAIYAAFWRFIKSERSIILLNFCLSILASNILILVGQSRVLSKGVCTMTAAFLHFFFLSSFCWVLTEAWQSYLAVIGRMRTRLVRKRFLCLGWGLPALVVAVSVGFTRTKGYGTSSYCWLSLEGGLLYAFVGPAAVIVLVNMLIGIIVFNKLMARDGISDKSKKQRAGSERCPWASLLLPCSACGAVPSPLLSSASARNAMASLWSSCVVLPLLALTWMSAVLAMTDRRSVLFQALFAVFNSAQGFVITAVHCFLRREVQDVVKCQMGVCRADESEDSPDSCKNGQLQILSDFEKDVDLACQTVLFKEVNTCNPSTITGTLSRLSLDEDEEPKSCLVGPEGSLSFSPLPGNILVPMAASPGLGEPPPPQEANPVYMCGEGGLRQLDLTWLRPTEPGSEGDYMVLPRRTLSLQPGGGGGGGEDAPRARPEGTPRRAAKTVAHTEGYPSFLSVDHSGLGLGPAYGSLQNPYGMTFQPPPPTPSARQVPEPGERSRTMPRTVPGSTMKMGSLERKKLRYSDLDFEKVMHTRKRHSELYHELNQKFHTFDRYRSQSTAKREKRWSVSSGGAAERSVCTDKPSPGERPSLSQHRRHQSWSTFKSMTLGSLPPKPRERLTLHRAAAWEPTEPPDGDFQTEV

CNc1ccc2oc(C[C@H]3O[C@@]4(CC[C@H]3C)O[C@H]([C@H](C)C(=O)c3ccc[nH]3)[C@H](C)C[C@H]4C)nc2c1C(=O)O [A23187]
response (intracellular Ca2+) to positive control (variant 3 gene product): observed similarly
response (intracellular Ca2+) to positive control (7tmHR gene product): observed similarly
response (intracellular Ca2+) to positive control (CHO-K1 cell line; CHO-K1 host cell, A23187 20 μM (Examples 8 and 9)): observed similarly
response (intracellular Ca2+) to positive control (hk01941 gene product): observed similarly

CCK-4: tetrapeptide consisting of the amino acid residues from the C-terminus to the fourth residue of CCK-8S
rise in the intracellular Ca2+ concentration [1]: not observed
increase in intracellular Ca2+ concentration (CHO-K1 cell line): no increase

CCK-8 Nonsulfated form [CCK-8NS]
rise in the intracellular Ca2+ concentration [1]: not observed
increase in intracellular Ca2+ concentration (CHO-K1 cell line): no increase

cholecystokinin octapeptide sulfated form [CCK-8S]
level of increase in the intracellular Ca2+ concentration compared with that produced by A23187 ([1]; 1 nM CCK-8S vs 10 μM A23187): roughly equal
rise in the intracellular Ca2+ concentration [1]: rose
increase in intracellular Ca2+ concentration (CHO-K1 cell line): no increase
change in intracellular calcium concentration (CHO-K1 cell line; host cell not transfected with variant 3 expression vector, CCK-8S (Example 9)): not observed
change in intracellular calcium concentration (CHO-K1 cell line; host cell transfected with neither 7tmHR nor hk01941 expression vector, CCK-8S (Example 8)): not observed
increase in insulin amounts [2]: promoted
increase in postcibal glucose amount [2]: suppressed
